Patent publication US7998950B2, “Antiviral compounds” (Gilead Sciences, Inc., priority 2008, dated 2011)

Each compound was assayed on HIV-IIIb (assay: Antiviral assay in MT-2 cells infected with HIV-IIIb). Conditions: Human immunodeficiency virus 1, IIIB, MT2, 120 h, MT-2 cells infected with HIV-IIIb, m.o.i. 0.01, 10% FBS, 5 days at 37° C., CellTiter-Glo chemiluminescence; read-out: EC50 in MT-2 cells.
Assay type: cell-based

| SMILES | EC50 |
| --- | --- |
| CNC(=O)c1c(O)c2ncc(Cc3ccc(F)cc3)c3c2n(c1=O)C=C(C(=O)NCC(C)(C)N1CCOCC1)O3 [Example 117] | 14 nM |
| CC(C)N1CCN(CCNC(=O)c2c(O)c3ncc(Cc4ccc(F)cc4)c4c3n(c2=O)CCO4)CC1 [compound 16] | 12 nM |
| COCCNC(=O)c1c(O)c2ncc(Cc3ccc(F)cc3)c3c2n(c1=O)C=C(C(=O)N1CCN(CC(F)(F)F)CC1)O3 [Example 110] | 27.4 nM |
| CCNC(=O)c1c(O)c2ncc(Cc3ccc(F)cc3)c3c2n(c1=O)C[C@@H](C(=O)NC)O3 [Example 165] | 8 nM |
| COCCNC(=O)c1c(O)c2ncc(Cc3ccc(F)cc3)c3c2n(c1=O)C=C(C(=O)N1CCOCC1(C)C)O3 [Example 108] | 7.5 nM |
| CNC(=O)C1=Cn2c(=O)c(C(=O)NCCO)c(O)c3ncc(Cc4ccc(F)cc4)c(c32)O1 [A-89] | 23 nM |
| N#CCCNC(=O)c1c(O)c2ncc(Cc3ccc(F)cc3)c3c2n(c1=O)C=C(C(=O)N1CCCCC1)O3 [Example 132] | 37.4 nM |
| CCNC(=O)C1=Cn2c(=O)c(C(=O)NCCC#N)c(O)c3ncc(Cc4ccc(F)cc4)c(c32)O1 [Example 112] | 11.7 nM |
| CNC(=O)[C@@H]1Cn2c(=O)c(C(=O)NCCCO)c(O)c3ncc(Cc4ccc(F)cc4)c(c32)O1 [Example 166] | 9 nM |
| O=C(NCCN(CCO)CCO)c1c(O)c2ncc(Cc3ccc(F)cc3)c3c2n(c1=O)CCO3 [compound 15] | 13 nM |
| CNC(=O)[C@@H]1Cn2c(=O)c(C(N)=O)c(O)c3ncc(Cc4ccc(F)cc4)c(c32)O1 [Example 167] | 25.6 nM |
| CNC(=O)c1c(O)c2ncc(Cc3ccc(F)cc3)c3c2n(c1=O)C[C@@H](CN(C)CCO)O3 [Example 202] | 12 nM |
| CNC(=O)c1c(O)c2ncc(Cc3ccc(F)cc3)c3c2n(c1=O)C[C@@H](C(N)=O)O3 [Example 168] | 12 nM |
| CNC(=O)c1c(O)c2ncc(Cc3ccc(F)cc3)c3c2n(c1=O)C=C(C(=O)NC(C)(C)CNC(=O)OC(C)(C)C)O3 [Example 120] | 19 nM |
| O=C(NCCCN1CCCC1)c1c(O)c2ncc(Cc3ccc(F)cc3)c3c2n(c1=O)CC(CO)O3 (centres unmarked) [A-28] | 51 nM |
| CNC[C@H]1Cn2c(=O)c(C(=O)NC)c(O)c3ncc(Cc4ccc(F)cc4)c(c32)O1 [Example 197] | 32 nM |
| CC1(C)Cn2c(=O)c(C(=O)NCCN3CCOCC3)c(O)c3ncc(Cc4ccc(F)cc4)c1c32 [compound 60] | 400 nM |
| O=C(NCCCN1CCCC1)c1c(O)c2ncc(Cc3ccc(F)cc3)c3c2n(c1=O)CC(F)(F)CN3 [Example 151] | 23 nM |
| O=C(NCCN1CCNS1(=O)=O)c1c(O)c2ncc(Cc3ccc(F)cc3)c3c2n(c1=O)CC(F)(F)CN3 [Example 144] | 20 nM |
| CCOCCNC(=O)c1c(O)c2ncc(Cc3ccc(F)cc3)c3c2n(c1=O)CCN3 [compound 38] | 8.5 nM |
| CNC(=O)c1c(O)c2ncc(Cc3ccc(F)cc3)c3c2n(c1=O)C=C(C(=O)N1CC(F)(F)C1)O3 [A-92] | 21 nM |
| CNC(=O)c1c(O)c2ncc(Cc3ccc(F)cc3)c3c2n(c1=O)C=C(C(=O)NC(C)(C)C)O3 [Example 136] | 7.2 nM |
| CC(C)(O)CNC(=O)c1c(O)c2ncc(Cc3ccc(F)cc3)c3c2n(c1=O)CCN3 [compound 39] | 9.5 nM |
| CC1(C)Cn2c(=O)c(C(=O)NCCO)c(O)c3ncc(Cc4ccc(F)cc4)c1c32 [compound 59] | 85 nM |
| CC(C)(CO)CNC(=O)c1c(O)c2ncc(Cc3ccc(F)cc3)c3c2n(c1=O)CC(F)(F)CN3 [Example 145] | 9 nM |
| CNC(=O)[C@@H]1Cn2c(=O)c(C(=O)NCCO)c(O)c3ncc(Cc4ccc(F)cc4)c(c32)O1 [Example 176] | 23.2 nM |
| COCCNC(=O)c1c(O)c2ncc(Cc3ccc(F)cc3)c3c2n(c1=O)CCCN3 [compound 52] | 8 nM |
| CCN(CC)C(=O)C1=Cn2c(=O)c(C(=O)NCCOC)c(O)c3ncc(Cc4ccc(F)cc4)c(c32)O1 [Example 105] | 71 nM |
| CNC(=O)C1=Cn2c(=O)c(C(=O)NCCC#N)c(O)c3ncc(Cc4ccc(F)cc4)c(c32)O1 [A-88] | 18 nM |

Other lines, results leading:

| EC50 | SMILES |
| --- | --- |
| 6.8 nM | CNC(=O)c1c(O)c2ncc(Cc3ccc(F)cc3)c3c2n(c1=O)C[C@H](C(=O)NC)O3 [A-50] |
| 5 nM | O=C(NCC(F)(F)CO)c1c(O)c2ncc(Cc3ccc(F)cc3)c3c2n(c1=O)CC(F)(F)CN3 [Example 149] |
| 7 nM | O=C(NCC1(CO)CC1)c1c(O)c2ncc(Cc3ccc(F)cc3)c3c2n(c1=O)CC(F)(F)CN3 [Example 152] |
| 2.8 nM | CNC(=O)c1c(O)c2ncc(Cc3ccc(F)cc3)c3c2n(c1=O)C[C@@H](CN(C)C(C)(C)C)O3 [Example 201] |
| 3.6 nM | CNC(=O)C1=Cn2c(=O)c(C(=O)NCCOC)c(O)c3ncc(Cc4ccc(F)cc4)c(c32)O1 [A-87] |
| 1 nM | CNC(=O)c1c(O)c2ncc(Cc3ccc(F)cc3)c3c2n(c1=O)C[C@@H](Cn1ccnc1C(=O)NC)O3 [Example 205] |
| 2 nM | CN1CCn2c(=O)c(C(=O)NCCO)c(O)c3ncc(Cc4ccc(F)cc4)c1c32 [compound 45] |
| 2.9 nM | CCNC(=O)C1=Cn2c(=O)c(C(=O)NC)c(O)c3ncc(Cc4ccc(F)cc4)c(c32)O1 [A-90] |
| 3.2 nM | O=C(NCCO)c1c(O)c2ncc(Cc3ccc(F)cc3)c3c2n(c1=O)CCO3 [compound 12] |
| 5.1 nM | CNC(=O)c1c(O)c2ncc(Cc3ccc(F)cc3)c3c2n(c1=O)C[C@H](CN(C)C(C)=O)O3 [Example 209] |
| 6.4 nM | COCCNC(=O)C1=Cn2c(=O)c(C(=O)NCCOC)c(O)c3ncc(Cc4ccc(F)cc4)c(c32)O1 [Example 114] |
| 2.5 nM | N#CCCCNC(=O)c1c(O)c2ncc(Cc3ccc(F)cc3)c3c2n(c1=O)CC(F)(F)CN3 [A-17] |
| 6.5 nM | C[C@@H](CO)NC(=O)c1c(O)c2ncc(Cc3ccc(F)cc3)c3c2n(c1=O)CC(F)(F)CN3 [A-13] |
| 4 nM | O=C(NCCCO)c1c(O)c2ncc(Cc3ccc(F)cc3)c3c2n(c1=O)CC(F)(F)CN3 [A-15] |
| 4 nM | C[C@@H](CO)NC(=O)c1c(O)c2ncc(Cc3ccc(F)cc3)c3c2n(c1=O)CCCN3 [compound 51] |
| 1.1 nM | CNC(=O)c1c(O)c2ncc(Cc3ccc(F)cc3)c3c2n(c1=O)C[C@@H](CNC(C)=O)O3 [Example 200] |
| 6 nM | O=C(NCCOCc1ccccc1)c1c(O)c2ncc(Cc3ccc(F)cc3)c3c2n(c1=O)CCN3 [compound 32] |
| 3.7 nM | CNC(=O)c1c(O)c2ncc(Cc3ccc(F)cc3)c3c2n(c1=O)C=C(C(=O)NCCOC(F)(F)F)O3 [Example 141] |
| 7 nM | O=C(NC1CC(O)C1)c1c(O)c2ncc(Cc3ccc(F)cc3)c3c2n(c1=O)CC(F)(F)CN3 (centres unmarked) [A-18] |
| 4.6 nM | O=C(NCCN1CCCS1(=O)=O)c1c(O)c2ncc(Cc3ccc(F)cc3)c3c2n(c1=O)CC(F)(F)CN3 [Example 162] |

| EC50 | SMILES |
| --- | --- |
| 6 nM | O=C(NCC1(CO)CCC1)c1c(O)c2ncc(Cc3ccc(F)cc3)c3c2n(c1=O)CC(F)(F)CN3 [Example 150] |
| 7 nM | O=C(NCCO)c1c(O)c2ncc(Cc3ccc(F)cc3)c3c2n(c1=O)CCN3 [compound 30] |
| 6 nM | CC(C)(C#N)CNC(=O)c1c(O)c2ncc(Cc3ccc(F)cc3)c3c2n(c1=O)CC(F)(F)CN3 [Example 154] |
| 7 nM | O=C(NCCO)c1c(O)c2ncc(Cc3ccc(F)cc3)c3c2n(c1=O)CC(F)(F)CN3 [compound 79] |
| 3.9 nM | CNC(=O)c1c(O)c2ncc(Cc3ccc(F)cc3)c3c2n(c1=O)C=C(C(=O)NCC(F)(F)F)O3 [Example 115] |
| 0.7 nM | CNC(=O)c1c(O)c2ncc(Cc3ccc(F)c(Cl)c3)c3c2n(c1=O)C=C(C(=O)NCC(C)(C)C#N)O3 [Example 118] |
| 3 nM | CNC(=O)c1c(O)c2ncc(Cc3ccc(F)cc3)c3c2n(c1=O)C[C@H](CC#N)O3 [Example 198] |
| 1.8 nM | CNC(=O)c1c(O)c2ncc(Cc3ccc(F)cc3)c3c2n(c1=O)C[C@@H](Cn1ccnc1)O3 [Example 183] |
| 1.9 nM | CNC(=O)c1c(O)c2ncc(Cc3ccc(F)cc3)c3c2n(c1=O)C=C(C(=O)NCC1(O)CCCCC1)O3 [Example 142] |
| 5.7 nM | CNC(=O)c1c(O)c2ncc(Cc3ccc(F)cc3)c3c2n(c1=O)CC(C(=O)N(C)C)O3 (centres unmarked) [A-35] |
| 3.5 nM | O=C(NC1CC1)c1c(O)c2ncc(Cc3ccc(F)cc3)c3c2n(c1=O)CCN3 [compound 36] |
| 5.5 nM | CNC(=O)c1c(O)c2ncc(Cc3ccc(F)cc3)c3c2n(c1=O)CC(CO)O3 (centres unmarked) [A-25] |
| 4 nM | COCCNC(=O)c1c(O)c2ncc(Cc3ccc(F)cc3)c3c2n(c1=O)CC(CO)O3 (centres unmarked) [A-27] |
| 4.2 nM | O=C(NCCCN1CCCC1=O)c1c(O)c2ncc(Cc3ccc(F)cc3)c3c2n(c1=O)CC(F)(F)CN3 [Example 161] |
| 0.6 nM | CNC(=O)c1c(O)c2ncc(Cc3ccc(F)cc3)c3c2n(c1=O)C[C@H](CN(C)S(C)(=O)=O)O3 [Example 208] |
| 2.5 nM | [2H]C([2H])([2H])NC(=O)c1c(O)c2ncc(Cc3ccc(F)cc3)c3c2n(c1=O)C=C(C(=O)NCC)O3 [Example 116] |
| 6.3 nM | CNC(=O)c1c(O)c2ncc(Cc3ccc(F)cc3)c3c2n(c1=O)C[C@@H](C(=O)NC)O3 [A-65] |
| 1.5 nM | CNC(=O)c1c(O)c2ncc(Cc3ccc(F)cc3)c3c2n(c1=O)C=C(C(=O)NCC1(C#N)CC1)O3 [Example 138] |
| 2.4 nM | CC(C)(C)NC(=O)C1=Cn2c(=O)c(C(=O)NCCO)c(O)c3ncc(Cc4ccc(F)cc4)c(c32)O1 [Example 139] |

Same assay, conditions: Human immunodeficiency virus 1, IIIB, MT2, 120 h, read-out: EC50 in MT-2 cells (nM)

| SMILES | EC50 |
| --- | --- |
| CNC(=O)c1c(O)c2ncc(Cc3ccc(F)cc3)c3c2n(c1=O)C=C(C1=NC(C)(C)CO1)O3 [Example 129] | 2.2 nM |

Same assay, conditions: MT-2 cells infected with HIV-IIIb, m.o.i. 0.01, 10% FBS, 5 days at 37° C., CellTiter-Glo chemiluminescence; listed as A-177; read-out: EC50 in MT-2 cells

| EC50 | SMILES |
| --- | --- |
| 5.5 nM | CCN(CC)C(=O)C1=Cn2c(=O)c(C(=O)NC)c(O)c3ncc(Cc4ccc(F)cc4)c(c32)O1 [Example 125] |

Same assay, conditions: MT-2 cells infected with HIV-IIIb, m.o.i. 0.01, 10% FBS, 5 days at 37° C., CellTiter-Glo chemiluminescence; read-out: EC50 in MT-2 cells

| EC50 | SMILES |
| --- | --- |
| 10 nM | CCN(CC)C(=O)C1=Cn2c(=O)c(C(=O)NC)c(O)c3ncc(Cc4ccc(F)cc4)c(c32)O1 [A-91] |
